Laboratory results reported in BindingDB's records for doi:10.7270/Q2NZ862K (Nmmlsc, 2007).

What follows are compounds tested against T1, fMet-Leu-Phe receptor (Homo sapiens, UniProt P21462) (assay: FPR ligands, dose response (AID 519)).
T1 sequence (P21462 whole entry): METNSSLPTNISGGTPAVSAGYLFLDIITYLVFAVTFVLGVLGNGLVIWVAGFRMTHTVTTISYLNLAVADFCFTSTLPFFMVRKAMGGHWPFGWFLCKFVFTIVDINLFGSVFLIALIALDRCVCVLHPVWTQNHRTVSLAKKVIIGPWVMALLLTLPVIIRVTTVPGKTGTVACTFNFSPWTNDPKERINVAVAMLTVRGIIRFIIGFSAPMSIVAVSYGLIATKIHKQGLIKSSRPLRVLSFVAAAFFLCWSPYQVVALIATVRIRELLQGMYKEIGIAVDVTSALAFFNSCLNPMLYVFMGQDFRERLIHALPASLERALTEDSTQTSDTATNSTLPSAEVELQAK
For `COc1ccc(C2C(C(=O)c3cccs3)C(=O)C(=O)N2c2nnc(C)s2)cc1OC` (stereo not drawn) [2-(3,4-dimethoxyphenyl)-1-(5-methyl-1,3,4-thiadiazol-2-yl)-4-oxidanyl-3-thiophen-2-ylcarbonyl-2H-pyrrol-5-one], the Ki was over 43.7 µM. For `CCOc1ccc(C(=O)C2C(=O)C(=O)N(c3nc(C)c(C)s3)C2c2ccco2)cc1` (stereo not drawn) [(4Z)-1-(4,5-dimethyl-1,3-thiazol-2-yl)-4-[(4-ethoxyphenyl)-hydroxymethylidene]-5-(furan-2-yl)pyrrolidine-2,3-dione], the Ki was 37.8 µM. Work on `COc1cc(C2C(C(=O)c3ccc4c(c3)CC(C)O4)C(=O)C(=O)N2CCCn2ccnc2)ccc1O` (stereo not drawn) [(4E)-1-(3-imidazol-1-ylpropyl)-5-(3-methoxy-4-oxidanyl-phenyl)-4-[(2-methyl-2,3-dihydro-1-benzofuran-5-yl)-oxidanyl-methylidene]pyrrolidine-2,3-dione] yielded a Ki of 37.6 µM. `COC(=O)Cc1n[nH]c2c1C(C1C=CCCC1)C(C#N)C(=N)O2` (stereo not drawn) [2-[6-amino-5-cyano-4-(1-cyclohex-2-enyl)-2,4-dihydropyrano[2,3-c]pyrazol-3-yl]acetic acid methyl ester] gave a Ki of over 43.7 µM. `COC(=O)c1[nH]c(C)c(C(=O)C2C(=O)C(=O)N(CCCN3CCOCC3)C2c2ccccn2)c1C` (stereo not drawn) [methyl 4-{[4-hydroxy-1-[3-(4-morpholinyl)propyl]-5-oxo-2-(2-pyridinyl)-2,5-dihydro-1H-pyrrol-3-yl]carbonyl}-3,5-dimethyl-1H-pyrrole-2-carboxylate] showed a Ki of 6.3 µM. `Cc1cc(N2C(=O)C(=O)C(C(=O)c3ccco3)C2c2cccnc2)no1` (stereo not drawn) [3-(furan-2-carbonyl)-4-hydroxy-1-(5-methyl-1,2-oxazol-3-yl)-2-pyridin-3-yl-2H-pyrrol-5-one] showed a Ki of over 43.7 µM. In the case of `COc1ccc(C(=O)C2C(=O)C(=O)N(c3nc(C)c(C)s3)C2c2ccco2)cc1` (stereo not drawn) [(4Z)-1-(4,5-dimethyl-1,3-thiazol-2-yl)-5-(furan-2-yl)-4-[(4-methoxyphenyl)-oxidanyl-methylidene]pyrrolidine-2,3-dione], the Ki is reported as over 43.7 µM. In the case of `O=C1C(=O)N(Cc2ccccc2)C(c2cccnc2)C1C(=O)c1ccco1` (stereo not drawn) [1-Benzyl-4-(furan-2-carbonyl)-3-hydroxy-5-pyridin-3-yl-1,5-dihydro-pyrrol-2-one], the Ki is reported as 20 µM. `C=CCN1C(=O)C2(c3ccccc31)C(C(=O)c1ccc3c(c1)OCCO3)C(=O)C(=O)N2CCCOC` (stereo not drawn) [(4'E)-1-allyl-4'-[2,3-dihydro-1,4-benzodioxin-6-yl(hydroxy)methylene]-1'-(3-methoxypropyl)spiro[indoline-3,5'-pyrrolidine]-2,2',3'-trione] gave a Ki of over 43.7 µM. `CCOc1ccc(C2C(C(=O)c3cccs3)C(=O)C(=O)N2CCCn2ccnc2)cc1` (stereo not drawn) [2-(4-ethoxyphenyl)-1-(3-imidazol-1-ylpropyl)-4-oxidanyl-3-thiophen-2-ylcarbonyl-2H-pyrrol-5-one] showed a Ki of 37.4 µM. `Cc1nc2c(C)cccn2c1C(=O)C1C(=O)C(=O)N(CCN2CCOCC2)C1c1cccs1` (stereo not drawn) [(4E)-4-[(2,8-dimethyl-3-imidazo[1,2-a]pyridinyl)-hydroxymethylidene]-1-[2-(4-morpholinyl)ethyl]-5-thiophen-2-ylpyrrolidine-2,3-dione] showed a Ki of over 43.7 µM. Work on `CC1=NC(C)=C(C#N)C(c2ccc3ncccc3c2)C1C#N` (stereo not drawn) yielded a Ki of over 43.7 µM. For `COc1ccc(OC)c(C2C(C(=O)c3ccccc3)C(=O)C(=O)N2Cc2ccco2)c1` (stereo not drawn) [(4Z)-5-(2,5-dimethoxyphenyl)-1-(2-furanylmethyl)-4-[hydroxy(phenyl)methylidene]pyrrolidine-2,3-dione], the Ki was 2.2 µM. Work on `COc1ccc(C2C(C(=O)c3ccccc3)C(=O)C(=O)N2CC(C)O)c(OC)c1` (stereo not drawn) [(4Z)-5-(2,4-dimethoxyphenyl)-4-[hydroxy(phenyl)methylene]-1-(2-hydroxypropyl)pyrrolidine-2,3-quinone] yielded a Ki of 25.3 µM. In the case of `CC1Cc2cc(C(=O)C3C(=O)C(=O)N(CCN4CCOCC4)C3c3ccccc3F)ccc2O1` (stereo not drawn) [(4E)-5-(2-fluorophenyl)-4-[(2-methyl-2,3-dihydro-1-benzofuran-5-yl)-oxidanyl-methylidene]-1-(2-morpholin-4-ylethyl)pyrrolidine-2,3-dione], the Ki is reported as over 43.7 µM. `O=c1c(C23CC4CC(CC(C4)C2)C3)c(O)n(-c2ccccc2)n1-c1ccccc1` [MLS000526352] was tested, and the Ki was 7.5 µM. In the case of `COc1ccc(C(=O)C2C(=O)C(=O)N(CCN3CCOCC3)C2c2ccc(C)cc2)cc1` (stereo not drawn) [(4Z)-4-[(4-methoxyphenyl)-oxidanyl-methylidene]-5-(4-methylphenyl)-1-(2-morpholin-4-ylethyl)pyrrolidine-2,3-dione], the Ki is reported as over 43.7 µM. `COCCN1C(=O)C(=O)C(C(=O)c2ccco2)C1c1cccc(Oc2ccccc2)c1` (stereo not drawn) [3-(furan-2-carbonyl)-4-hydroxy-1-(2-methoxyethyl)-2-(3-phenoxyphenyl)-2H-pyrrol-5-one] showed a Ki of 36.7 µM. Work on `O=C1C(=O)N(c2ncccn2)C(c2ccc(Cl)c(Cl)c2)C1C(=O)c1ccco1` (stereo not drawn) [2-(3,4-dichlorophenyl)-3-(furan-2-carbonyl)-4-hydroxy-1-pyrimidin-2-yl-2H-pyrrol-5-one] yielded a Ki of over 43.7 µM. Compound `O=C1C(=O)N(Cc2ccco2)C(c2ccccc2)C1C(=O)c1cccs1` (stereo not drawn) [1-(2-furanylmethyl)-4-hydroxy-3-[oxo(thiophen-2-yl)methyl]-2-phenyl-2H-pyrrol-5-one] has a Ki of 23 µM. `COc1cccc(OC)c1C(=O)C(C#N)c1nc2ccccc2[nH]1` (stereo not drawn) [SMR000024183] showed a Ki of over 43.7 µM. In the case of `O=C1CCCC(=O)C1C(C#Cc1ccccc1)C1C(=O)CCCC1=O` [3-hydroxy-2-[1-(2-hydroxy-6-keto-cyclohexen-1-yl)-3-phenyl-prop-2-ynyl]cyclohex-2-en-1-one], the Ki is reported as over 43.7 µM. For `COCCCN1C(=O)C(=O)C(C(=O)c2ccco2)C1c1ccc(Br)cc1` (stereo not drawn) [2-(4-bromophenyl)-3-(furan-2-carbonyl)-4-hydroxy-1-(3-methoxypropyl)-2H-pyrrol-5-one], the Ki was 9.6 µM. In the case of `CCCOc1ccc(C2C(C(=O)c3ccc(C)o3)C(=O)C(=O)N2Cc2cccnc2)cc1` (stereo not drawn) [3-(5-methylfuran-2-yl)carbonyl-4-oxidanyl-2-(4-propoxyphenyl)-1-(pyridin-3-ylmethyl)-2H-pyrrol-5-one], the Ki is reported as 27.9 µM. For `COCCCN1C(=O)C(=O)C(C(=O)c2ccco2)C1c1cccc(Br)c1` (stereo not drawn) [2-(3-bromophenyl)-3-(furan-2-carbonyl)-4-hydroxy-1-(3-methoxypropyl)-2H-pyrrol-5-one], the Ki was 20.4 µM. Work on `COCCCN1C(=O)C(=O)C(C(=O)c2ccc3c(c2)CC(C)O3)C1c1cccnc1` (stereo not drawn) [(4E)-1-(3-methoxypropyl)-4-[(2-methyl-2,3-dihydro-1-benzofuran-5-yl)-oxidanyl-methylidene]-5-pyridin-3-yl-pyrrolidine-2,3-dione] yielded a Ki of over 43.7 µM. Compound `C=CCOc1cccc(C2C(C(=O)c3ccco3)C(=O)C(=O)N2CCN2CCOCC2)c1` (stereo not drawn) [3-(furan-2-carbonyl)-4-hydroxy-1-(2-morpholin-4-ylethyl)-2-(3-prop-2-enoxyphenyl)-2H-pyrrol-5-one] has a Ki of over 43.7 µM. With `COc1ccc(CCN2C(=O)C(=O)C(C(=O)c3ccco3)C2c2cccs2)cc1OC` (stereo not drawn) [1-[2-(3,4-Dimethoxy-phenyl)-ethyl]-4-(furan-2-carbonyl)-3-hydroxy-5-thiophen-2-yl-1,5-dihydro-pyrrol-2-one] the Ki was 12.4 µM. `COCCCN1C(=O)C(=O)C(C(=O)c2ccccc2)C1c1ccc2c(c1)OCO2` (stereo not drawn) [(4E)-5-(1,3-benzodioxol-5-yl)-1-(3-methoxypropyl)-4-[oxidanyl(phenyl)methylidene]pyrrolidine-2,3-dione] was tested, and the Ki was 19.4 µM. Work on `CC1=C(C(=O)OC(C)C)[C@]2(C(=O)N(CC(N)=O)c3ccccc32)C(C#N)C(=N)O1` (stereo partly drawn) [(3R)-6'-amino-1-(2-amino-2-keto-ethyl)-5'-cyano-2-keto-2'-methyl-spiro[indoline-3,4'-pyran]-3'-carboxylic acid isopropyl ester] yielded a Ki of over 43.7 µM. `COc1ccc(OC)c(C2C(C(=O)c3cc4ccccc4o3)C(=O)C(=O)N2c2cc(C)on2)c1` (stereo not drawn) [3-(1-benzofuran-2-carbonyl)-2-(2,5-dimethoxyphenyl)-4-hydroxy-1-(5-methyl-1,2-oxazol-3-yl)-2H-pyrrol-5-one] gave a Ki of 23.9 µM. With `CCOc1ccc(C(=O)C2C(=O)C(=O)N(CC3CCCO3)C2c2ccc(C)o2)cc1` (stereo not drawn) [(4Z)-4-[(4-ethoxyphenyl)-hydroxymethylidene]-5-(5-methyl-2-furanyl)-1-(2-oxolanylmethyl)pyrrolidine-2,3-dione] the Ki was 13.8 µM. With `COc1ccc(OC)c(C2C(C(=O)c3cccs3)C(=O)C(=O)N2c2cc(C)on2)c1` (stereo not drawn) [2-(2,5-dimethoxyphenyl)-1-(5-methyl-1,2-oxazol-3-yl)-4-oxidanyl-3-thiophen-2-ylcarbonyl-2H-pyrrol-5-one] the Ki was over 43.7 µM. `O=C1C(=O)N(Cc2ccccc2)C(c2ccncc2)C1C(=O)c1ccco1` (stereo not drawn) [1-Benzyl-4-(furan-2-carbonyl)-3-hydroxy-5-pyridin-4-yl-1,5-dihydro-pyrrol-2-one] was tested, and the Ki was 8.9 µM. In the case of `C=CCOc1ccc(C2C(C(=O)c3ccco3)C(=O)C(=O)N2Cc2cccnc2)cc1` (stereo not drawn) [3-(furan-2-carbonyl)-4-hydroxy-2-(4-prop-2-enoxyphenyl)-1-(pyridin-3-ylmethyl)-2H-pyrrol-5-one], the Ki is reported as 6.4 µM. Compound `COCCN1C(=O)C(=O)C(C(=O)c2cccs2)C1c1ccccc1` (stereo not drawn) [1-(2-methoxyethyl)-4-oxidanyl-2-phenyl-3-thiophen-2-ylcarbonyl-2H-pyrrol-5-one] has a Ki of over 43.7 µM. `CCCOc1ccc(C2C(C(=O)c3ccc(C)o3)C(=O)C(=O)N2CCCn2ccnc2)cc1` (stereo not drawn) [1-(3-imidazol-1-ylpropyl)-3-(5-methylfuran-2-yl)carbonyl-4-oxidanyl-2-(4-propoxyphenyl)-2H-pyrrol-5-one] was tested, and the Ki was 9 µM. Work on `CCOc1cccc(C(=O)C2C(=O)C(=O)N(Cc3cccnc3)C2c2ccco2)c1` (stereo not drawn) [(4Z)-4-[(3-ethoxyphenyl)-hydroxymethylidene]-5-(2-furanyl)-1-(3-pyridinylmethyl)pyrrolidine-2,3-dione] yielded a Ki of over 43.7 µM.
